We go through 6 compounds from patent publication US10499676B2, “Intestinal barrier integrity” (N.V. Nutricia, priority 2004, dated 2019).

Assay [1] relates to intestinal epithelial cell line T84 monolayers. The assay is described as follows: Effect of LC-PUFA on basal (spontaneous) barrier integrity: TER and 4 kDa FITC-dextran flux. Type of assay: cell-based, human. Particulars: for basal barrier integrity (TER), time and dose dependent effect: FIGS. 1A and 1B, 10 μM and 100 μM; for Flux / Resistance (TER): fatty acid 100 μM, 72 hr incubation, spontaneous barrier integrity; for Flux: 4 kDa FITC-dextran. The procedure: (§1) Monolayers (MC) of intestinal epithelial cell lines T84 (American Type Culture Collection (ATTC), Manassas, USA) were cultured on transwell filters (Corning, Costar BV, The Netherlands) allowing both mucosal and serosal sampling and stimulation of human intestinal epithelial cells. Two weeks post confluency the monolayers were incubated in the luminal compartment with polyunsaturated fatty acids ARA (arachidonic acid; 5,8,11,14-eicosatetraenoic acid), DHA (cis-4,7,10,13,16,19 docosahexaenoic acid), EPA (eicosapentaenoic acid) or control palmitic (C 16:0) acid (Palm) (Sigma, St. Louis, USA). The latter procedure was chosen to mimic the in vivo administration route of the dietary compounds. Cells were incubated with ARA, DHA, EPA, or palmitic acid for 0, 24, 48 and 72 hr at different concentrations (10 μM and 100 μM). Experiments were performed to evaluate basal barrier integrity. The epithelial barrier function was determined by measuring the transepithelial resistance (TER, Ω·cm^2) was measured by epithelial volt-ohm meter (EVOM; World Precision Instruments, Germany) and permeability for 4 kD FITC dextran (paracellular permeability marker, Sigma, USA). Resistance (Epithelial permeability for 4 kDa FITC-dextran was determined as follows. Prior to dextran fluxes the medium was refreshed with culture medium without phenol red for one hour followed by addition of 5 μl (stock 100 mg/ml) 4 kDa FITC-dextran to the lumenal compartment. After 30 min incubation 100 μl sample was collected from the serosal compartment and the fluorescent signal measured at excitation wavelength 485 nm and emission 520 nm (FLUOstar Galaxy®, BMG Labtechnologies, USA). FITC-dextran fluxes were calculated as pmol FITC-dextran/cm^2/h. Statistical analyses were performed using the ANOVA (SPSS version 10).

Assay [2] concerns intestinal epithelial cell line T84 monolayers incubated with IL-4. The assay is described as follows: Effect of LC-PUFA on IL-4 mediated barrier disruption: TER and 4 kDa FITC-dextran flux. Type of assay: cell-based, human. Particulars: for protective effect on IL-4 mediated barrier destruction (Flux), time and dose dependent: FIGS. 2A and 2B, 10 μM and 100 μM, 4 kD dextran flux; for IL-4 Flux / IL-4 TER: fatty acid 100 μM, 48 hr pre-incubation then 48 hr co-incubation with IL-4 2 ng/ml. On the procedure:
as §1
Monolayers (MC) of intestinal epithelial cell lines T84 (ATCC, USA) were cultured on transwell filters (Corning, Costar BV, The Netherlands) allowing both mucosal and serosal sampling and stimulation of human intestinal epithelial cells. Two weeks post confluency the monolayers were incubated in the presence of IL-4 (2 ng/ml, serosal compartment, Sigma, USA) with or without polyunsaturated fatty acids ARA, DHA, GLA, EPA, or control palmitic acid (10 μM or 100 μM, mucosal compartment, Sigma, St. Louis, USA). Cells were pre-incubated with ARA, DHA, EPA, or palmitic acid for 48 hr prior to the IL-4 incubation. The co-incubation of PUFA's and palmetic acid with IL-4 was continued for another 48 hr; while culture medium and additives were changed every 24 hr. The epithelial barrier function was determined by measuring the transepithelial resistance (TER) and permeability as described in example 1. Statistical evaluation was performed as described in example 1.

Assay [3] has as its system MUC-2 expression in intestinal epithelial T84 cells. Conditions: FIG. 4, 24 h, 0.025-4.0 mM, compared to propionate and butyrate.

Molecules are shown by their SMILES.

For the compound `CCCCC/C=C\C/C=C\C/C=C\CCCCC(=O)O` [GLA], the “basal barrier integrity (TER), time and dose dependent effect” value (shortened to “basal barrier integrity (TER)”) in assay [1] is “increased resistance”. For the same compound, the “protective effect on IL-4 mediated barrier destruction (Flux), time and dose dependent” value (shortened to “protective effect”) in assay [2] was “decreased 4 kD dextran flux”.
On to `CC/C=C\C/C=C\C/C=C\C/C=C\C/C=C\CCCC(=O)O` [EPA, eicosapentaenoic acid], for which, in assay [1], the Flux is 65 pmol FITC-dextran/cm^2/h and the “Resistance (TER)” value is listed as 1493 Ω·cm^2. In assay [2], the “IL-4 Flux” value is listed as 228 pmol FITC-dextran/cm^2/h and the “IL-4 TER” value is 539 Ω·cm^2.
For the compound `CC(=O)O` [acetate], the “MUC-2 expression (mucus production)” value in assay [3] was “more potent in stimulating MUC-2 expression”.
With `CCC=CCC=CCC=CCC=CCC=CC/C=C\CCC(=O)O` [DHA, cis-4,7,10,13,16,19 docosahexaenoic acid], in assay [1], the “basal barrier integrity (TER)” value is “increased resistance”; the Flux is on record as 72 pmol FITC-dextran/cm^2/h; the “Resistance (TER)” value is given as 1574 Ω·cm^2. Also, in assay [2], the “protective effect” value was “decreased 4 kD dextran flux”; the “IL-4 Flux” value came out at 271 pmol FITC-dextran/cm^2/h; the “IL-4 TER” value was 547 Ω·cm^2.
Regarding `CCCCC/C=C\C/C=C\C/C=C\C/C=C\CCCC(=O)O` [ARA, 5,8,11,14-eicosatetraenoic acid], in assay [1], the “basal barrier integrity (TER)” value is recorded as “increased resistance”; the Flux was 28 pmol FITC-dextran/cm^2/h; the “Resistance (TER)” value is on record as 1816 Ω·cm^2. For the same compound, in assay [2], the “protective effect” value is listed as “decreased 4 kD dextran flux”; the “IL-4 Flux” value is on record as 218 pmol FITC-dextran/cm^2/h; the “IL-4 TER” value is given as 636 Ω·cm^2.
Take `CCCCCCCCCCCCCCCC(=O)O` [Palmitic acid, palmitic (C 16:0) acid, reference compound]: in assay [1], the Flux was found to be 161 pmol FITC-dextran/cm^2/h and the “Resistance (TER)” value is recorded as 831 Ω·cm^2. Further, in assay [2], the “IL-4 Flux” value is listed as 777 pmol FITC-dextran/cm^2/h and the “IL-4 TER” value is 321 Ω·cm^2.
